Consider 1 compound from article PMC12376758, “Restoration of CB1 receptor function in hippocampal GABAergic neurons rescues memory deficits in Huntington’s disease models” (Translational Neurodegeneration, 2025).

Where two headings read alike, the source gives them in different places.

One assay relates to PSD95. Kind of assay: Western blot of PSD95 in hippocampal lysates. The assay is classed as in vivo, mouse. Particulars: R6/1 mice, WIN 1 mg/kg i.p. 10 days. On the technique in general: A western blot detects proteins with antibodies after separation by electrophoresis.
In assay [1] the test system is CB1R. More on the design: method as in PMID 36979335. Particulars: rat model of cerebral ischemia; cited from earlier work.
The next assay has as its system BDNF. Put plainly: Western blot of BDNF in hippocampal lysates. The assay is classed as in vivo, mouse. Particulars: R6/1 mice, WIN 1 mg/kg i.p. 10 days.
The subject of another assay is young rats. Particulars: chronic WIN; cited from earlier work.
For assay [2], the system named is CB1R. The assay is classed as in vivo, mouse. Particulars: for CB1R protein level, Western blot: total hippocampal lysates, WIN 1 mg/kg i.p. 10 days.
Assay [3] relates to Hdh^Q7/Q111 mutant KI mice. Kind of assay: NOLT, NORT and Y-maze in Hdh^Q7/Q111 KI mice. Particulars: 6 months, sub-chronic WIN 1 mg/kg i.p. The assay is classed as in vivo, mouse. The procedure:
Spontaneous working memory was assessed using the Y-maze test. Mice were habituated to the testing room 1 h prior to the session. During the 8-min trial, each mouse was placed in the center of the maze and allowed to move freely. An arm entry was recorded when all four paws of the mouse were within the arm. The apparatus was cleaned thoroughly after each trial. Alternation was defined as successive entries into all three arms in an overlapping triplet sequence. Spontaneous alternation was calculated as the ratio of actual alternations to the total possible alternations, and the result was expressed as a percentage.
NOLT was conducted in a quadrangular open field (40 cm × 40 cm, 40 cm high) with a light intensity of 40 lx at controlled room conditions (19–22 °C, 40%–60% humidity). […] During this phase, spontaneous locomotor activity, as well as the time and the distance spent in the periphery versus the center, were measured. […] Animal movements were tracked and recorded using the SMART® Junior software (Panlab, Spain). Exploration times were recorded to calculate the discrimination index as follows: discriminationindex=Timeexploringnovelobject-Timeexploringfamiliarobject/Timeexploringbothobjects×100\%
Exploration in the NORT followed the same conditions as described for the NOLT. […] Animal movements were tracked and recorded with the SMART® Junior software (Panlab, Spain). […]

The test system of the next assay is R6/1 mice. Put plainly: Y-maze spontaneous alternation in R6/1 mice. The assay is classed as in vivo, mouse. Particulars: WIN 1 mg/kg i.p. 10 days. How it is done:
To selectively induce CB1R expression in GABAergic neurons, we generated a plasmid for AAV8-mDlx5/6-CNR1. Infectious AAV viral particles were developed by the Viral Vector Production Unit (UPV) of the Universitat Autònoma de Barcelona (UAB). WT and R6/1 mice, aged 10 weeks, were anesthetized with ketamine hydrochloride/xylazine hydrochloride (i.p.; 100 and 10 mg/kg, respectively, Merck) and injected bilaterally in the hippocampus with AAV8-mDlx-CB1R or AAV8-mCherry (Vector Biolabs) (viral concentrations ranging from 1.8 × 10^9 to 1.5 × 10^9). The injection coordinates (in mm) from bregma (anteroposterior and lateral) and from skull (dorsoventral) were as follows: anteroposterior: − 2.0; lateral ± 1.25, and dorsoventral: − 1.3 (CA1). AAVs were injected for over 2 min, and the cannula was left in place for an additional 5 min to allow complete diffusion of the virus before being slowly retracted. Mice were monitored for 1 h post-injection and then returned to the housing facility for 3 weeks. […] For double-positive quantification, Pearson’s correlation coefficient was calculated using ImageJ2. […]
Spontaneous working memory was assessed using the Y-maze test. […] An arm entry was recorded when all four paws of the mouse were within the arm. […] Spontaneous alternation was calculated as the ratio of actual alternations to the total possible alternations, and the result was expressed as a percentage.

As to `Cc1c(C(=O)c2cccc3ccccc23)c2cccc3c2n1[C@H](CN1CCOCC1)CO3` [WIN, WIN 55212–2], in the assay on PSD95, the PSD95 protein level entry is “restored”. In addition, the “CB1R protein levels in the hippocampus” value in the assay with CB1R [1] is “significantly increased”. In addition, the BDNF protein level entry in the assay on BDNF is “restored”. In the assay on young rats, the “cytoskeletal remodeling in the hippocampus” value was “increased dendritic thickness and branching”. Further, the “CB1R levels, Western blot” value with CB1R [2] (Hdh^Q7/Q111 KI mice 6 months, hippocampal lysates, sub-chronic WIN) was “trend of increase”. In addition, the “CB1R protein level, Western blot” value with CB1R [2] (R6/1 mice 13 weeks) is “restored”; in the assay on CB1R [2] (WT mice) it was “significantly modulated”. For the same compound, the “memory deficits (NOLT, NORT, Y-maze)” value in assay [3] is “restored”. For the same compound, the “spontaneous alternation performance (Y-maze)” value in the assay on R6/1 mice (presymptomatic stage (11 weeks, Fig. S4d)) is “significantly enhanced”; with R6/1 mice (symptomatic stage (13 weeks, Fig. 3d)), “significantly enhanced”.
